Results on two compounds are retold here after US11564920B2, “5-heteroaryl-1H-pyrazol-3-amine derivative” (Sumitomo Pharma Co., Ltd., priority 2020, dated 2023).

The structures appear in SMILES notation. “Also recorded” adds a separate entry of the source. A value given as a limit tells only on which side of the number the result lay.

One series concerns the target CHK1 (Homo sapiens (Human), UniProt O14757). The experiment in a line: CHK1 inhibitory activity test (IMAP TR-FRET). The format is biochemical.
In another series the target is CHK2 (Homo sapiens (Human), UniProt O96017). Kind of series: CHK1/CHK2 selectivity test (LabChip mobility shift). The format is biochemical. The following applies: read-out: IC50 value with respect to CHK2.
The next series has as its target hERG current (Homo sapiens (Human), UniProt Q12809). The experiment in a line: hERG current blocking test. The settings on record: IC50 of hERG divided by IC50 of CHK1 inhibition of Test Example 1.
For another series, the target named is MARK1 (Homo sapiens (Human), UniProt Q9P0L2). The experiment in a line: Kinase selectivity test (HotSpot Full Panel Kinase profiling). The format is biochemical. The following applies: 100 nM, ATP 10 μM; read-out: Residual activity (%) MARK1. The procedure:
(§1) Buffer: 20 mM HEPES, pH 7.5, 10 mM MgCl2, 2 mM […] (as needed), 1 mM EGTA, 0.02% Brij35, 0.02 mg/mL BSA, 0.1 mM Na3VO4, 2 mM DTT, 1% DMSO
(§2) Compound concentration: 100 nM

The next series has as its target LRRK2 (Homo sapiens (Human), UniProt Q5S007). The series is described as above. The format is biochemical. The following applies: 100 nM, ATP 10 μM; read-out: Residual activity (%) LRRK2. The protocol: as §1
(§3) ATP conversion rate in 2 hours: 5 to 20%
as §2

The next series deals with CDK19/CYCLIN C (Homo sapiens (Human), UniProt Q9BWU1). The description is as above. The format is biochemical. The following applies: 100 nM, ATP 10 μM; read-out: Residual activity (%) CDK19/CYCLIN C. The procedure:
as §1, §3, §2

For the next series, the target named is MEK5 (Homo sapiens (Human), UniProt Q13163). The description is as above. The format is biochemical. The following applies: 100 nM, ATP 10 μM; read-out: Residual activity (%) MEK5. The protocol: as §1, §3, §2
The target in a further series is GLK/MAP4K3 (Homo sapiens (Human), UniProt Q8IVH8). The description is as above. The settings on record: 100 nM, ATP 10 μM; read-out: Residual activity (%) GLK/MAP4K3. The format is biochemical. The protocol:
as §1, §3, §2

The next series deals with SIK1 (Homo sapiens (Human), UniProt P57059). The description is as above. The format is biochemical. The following applies: 100 nM, ATP 10 μM; read-out: Residual activity (%) SIK1. The protocol:
as §1, §3, §2

Sequence of CHK1 (O14757 whole entry): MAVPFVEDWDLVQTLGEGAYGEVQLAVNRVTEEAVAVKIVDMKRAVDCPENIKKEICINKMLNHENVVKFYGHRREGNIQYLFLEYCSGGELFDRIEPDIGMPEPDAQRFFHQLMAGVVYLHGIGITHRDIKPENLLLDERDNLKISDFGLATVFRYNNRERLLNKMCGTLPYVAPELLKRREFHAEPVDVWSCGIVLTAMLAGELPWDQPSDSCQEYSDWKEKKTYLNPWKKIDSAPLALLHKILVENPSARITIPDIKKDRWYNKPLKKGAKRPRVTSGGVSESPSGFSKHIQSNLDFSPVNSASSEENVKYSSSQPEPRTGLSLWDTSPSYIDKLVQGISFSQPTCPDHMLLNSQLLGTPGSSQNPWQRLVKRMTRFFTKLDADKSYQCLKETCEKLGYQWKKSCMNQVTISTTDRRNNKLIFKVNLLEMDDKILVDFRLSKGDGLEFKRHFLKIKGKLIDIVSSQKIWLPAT
Sequence of LRRK2 (Q5S007 whole entry): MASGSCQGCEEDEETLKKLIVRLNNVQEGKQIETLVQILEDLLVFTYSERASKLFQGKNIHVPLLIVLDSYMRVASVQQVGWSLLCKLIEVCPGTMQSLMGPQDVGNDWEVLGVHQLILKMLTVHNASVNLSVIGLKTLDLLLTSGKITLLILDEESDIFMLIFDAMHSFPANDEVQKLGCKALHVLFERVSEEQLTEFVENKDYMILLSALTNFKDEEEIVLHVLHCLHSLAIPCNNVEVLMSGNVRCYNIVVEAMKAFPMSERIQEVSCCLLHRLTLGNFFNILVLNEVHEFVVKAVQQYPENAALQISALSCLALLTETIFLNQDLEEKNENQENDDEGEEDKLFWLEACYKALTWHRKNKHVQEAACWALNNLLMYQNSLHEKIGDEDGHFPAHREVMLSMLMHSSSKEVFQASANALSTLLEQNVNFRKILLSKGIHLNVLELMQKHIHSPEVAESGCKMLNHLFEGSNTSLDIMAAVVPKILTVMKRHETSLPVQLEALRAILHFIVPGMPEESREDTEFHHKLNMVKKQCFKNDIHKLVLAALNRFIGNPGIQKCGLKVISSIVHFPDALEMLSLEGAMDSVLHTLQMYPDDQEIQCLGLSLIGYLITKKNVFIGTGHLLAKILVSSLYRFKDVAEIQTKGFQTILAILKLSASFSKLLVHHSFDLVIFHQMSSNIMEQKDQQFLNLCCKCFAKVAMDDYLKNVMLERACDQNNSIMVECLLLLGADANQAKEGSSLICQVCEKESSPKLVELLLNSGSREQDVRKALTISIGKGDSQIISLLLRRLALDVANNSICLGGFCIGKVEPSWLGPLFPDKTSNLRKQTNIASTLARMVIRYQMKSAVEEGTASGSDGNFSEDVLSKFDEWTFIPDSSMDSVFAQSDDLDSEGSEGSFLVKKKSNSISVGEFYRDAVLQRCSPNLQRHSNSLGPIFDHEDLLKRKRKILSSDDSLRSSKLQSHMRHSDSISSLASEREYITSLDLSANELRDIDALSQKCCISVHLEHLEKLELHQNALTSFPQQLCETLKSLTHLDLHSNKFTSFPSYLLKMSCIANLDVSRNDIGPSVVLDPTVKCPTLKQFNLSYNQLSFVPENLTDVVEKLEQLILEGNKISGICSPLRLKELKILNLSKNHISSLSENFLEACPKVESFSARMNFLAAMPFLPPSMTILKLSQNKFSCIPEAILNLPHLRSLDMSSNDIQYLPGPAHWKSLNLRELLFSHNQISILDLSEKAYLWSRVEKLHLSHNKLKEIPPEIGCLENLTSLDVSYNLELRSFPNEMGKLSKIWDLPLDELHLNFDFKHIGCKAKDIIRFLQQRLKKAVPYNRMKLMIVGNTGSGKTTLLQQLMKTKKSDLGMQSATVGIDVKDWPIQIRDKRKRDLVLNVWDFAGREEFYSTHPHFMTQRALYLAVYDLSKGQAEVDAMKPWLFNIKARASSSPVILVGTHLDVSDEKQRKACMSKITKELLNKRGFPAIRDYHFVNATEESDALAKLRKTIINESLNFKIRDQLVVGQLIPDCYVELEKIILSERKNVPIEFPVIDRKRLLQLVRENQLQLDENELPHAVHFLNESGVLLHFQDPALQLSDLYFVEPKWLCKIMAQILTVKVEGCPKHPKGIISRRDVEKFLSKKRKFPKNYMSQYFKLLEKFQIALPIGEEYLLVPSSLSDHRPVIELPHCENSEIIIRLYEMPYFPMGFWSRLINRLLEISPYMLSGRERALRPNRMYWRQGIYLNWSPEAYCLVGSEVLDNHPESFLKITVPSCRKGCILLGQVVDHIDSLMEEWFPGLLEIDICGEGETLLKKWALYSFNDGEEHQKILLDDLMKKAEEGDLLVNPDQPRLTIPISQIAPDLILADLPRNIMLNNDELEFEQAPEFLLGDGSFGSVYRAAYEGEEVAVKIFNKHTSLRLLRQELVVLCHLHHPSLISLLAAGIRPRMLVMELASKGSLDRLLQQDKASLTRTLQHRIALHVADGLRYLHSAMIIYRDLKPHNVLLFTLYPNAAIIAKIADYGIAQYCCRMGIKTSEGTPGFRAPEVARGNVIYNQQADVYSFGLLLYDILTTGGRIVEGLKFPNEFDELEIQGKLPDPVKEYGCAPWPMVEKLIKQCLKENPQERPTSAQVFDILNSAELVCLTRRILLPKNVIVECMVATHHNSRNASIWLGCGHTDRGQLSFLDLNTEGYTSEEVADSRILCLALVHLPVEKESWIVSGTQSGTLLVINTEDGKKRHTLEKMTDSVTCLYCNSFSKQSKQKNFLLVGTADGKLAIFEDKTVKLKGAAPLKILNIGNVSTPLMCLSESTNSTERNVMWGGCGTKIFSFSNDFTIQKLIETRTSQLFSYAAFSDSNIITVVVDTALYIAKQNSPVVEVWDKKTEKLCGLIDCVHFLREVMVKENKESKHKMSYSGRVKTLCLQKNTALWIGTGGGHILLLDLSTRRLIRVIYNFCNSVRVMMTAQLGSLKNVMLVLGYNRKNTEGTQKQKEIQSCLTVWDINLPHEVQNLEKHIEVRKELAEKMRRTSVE
Sequence of MEK5 (Q13163 whole entry): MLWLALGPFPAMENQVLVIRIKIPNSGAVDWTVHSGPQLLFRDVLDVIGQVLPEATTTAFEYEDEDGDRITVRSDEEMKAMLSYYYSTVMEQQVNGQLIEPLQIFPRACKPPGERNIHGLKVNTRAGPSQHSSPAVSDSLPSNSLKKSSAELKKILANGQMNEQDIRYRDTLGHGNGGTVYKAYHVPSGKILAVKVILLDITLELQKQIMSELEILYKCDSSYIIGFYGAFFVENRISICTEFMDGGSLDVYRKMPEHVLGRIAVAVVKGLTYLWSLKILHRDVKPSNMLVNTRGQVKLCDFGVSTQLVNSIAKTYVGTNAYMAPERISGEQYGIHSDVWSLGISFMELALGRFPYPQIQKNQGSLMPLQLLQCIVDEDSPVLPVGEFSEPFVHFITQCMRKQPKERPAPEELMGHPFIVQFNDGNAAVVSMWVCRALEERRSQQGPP
Sequence of MARK1 (Q9P0L2 whole entry): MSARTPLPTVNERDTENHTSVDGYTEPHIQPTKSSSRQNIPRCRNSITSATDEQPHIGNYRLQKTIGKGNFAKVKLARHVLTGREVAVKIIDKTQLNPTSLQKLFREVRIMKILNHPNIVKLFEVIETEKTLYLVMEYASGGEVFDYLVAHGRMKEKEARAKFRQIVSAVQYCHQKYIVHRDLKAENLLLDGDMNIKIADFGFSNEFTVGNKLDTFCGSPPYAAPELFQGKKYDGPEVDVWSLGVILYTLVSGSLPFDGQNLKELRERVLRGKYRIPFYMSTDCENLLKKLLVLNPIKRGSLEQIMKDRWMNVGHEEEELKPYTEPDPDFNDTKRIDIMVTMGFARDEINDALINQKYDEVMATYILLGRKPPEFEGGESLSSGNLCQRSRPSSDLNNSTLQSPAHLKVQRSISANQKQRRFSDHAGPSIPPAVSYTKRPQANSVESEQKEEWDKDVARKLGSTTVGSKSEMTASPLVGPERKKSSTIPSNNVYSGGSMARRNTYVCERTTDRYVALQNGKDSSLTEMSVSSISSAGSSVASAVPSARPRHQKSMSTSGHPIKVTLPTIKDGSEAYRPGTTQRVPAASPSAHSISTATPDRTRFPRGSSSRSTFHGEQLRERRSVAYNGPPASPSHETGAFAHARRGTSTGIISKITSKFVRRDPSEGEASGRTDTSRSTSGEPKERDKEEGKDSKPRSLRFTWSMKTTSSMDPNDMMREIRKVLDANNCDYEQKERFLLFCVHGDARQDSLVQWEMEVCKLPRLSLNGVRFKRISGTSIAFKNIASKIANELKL
Sequence of CDK19/CYCLIN C (Q9BWU1 whole entry): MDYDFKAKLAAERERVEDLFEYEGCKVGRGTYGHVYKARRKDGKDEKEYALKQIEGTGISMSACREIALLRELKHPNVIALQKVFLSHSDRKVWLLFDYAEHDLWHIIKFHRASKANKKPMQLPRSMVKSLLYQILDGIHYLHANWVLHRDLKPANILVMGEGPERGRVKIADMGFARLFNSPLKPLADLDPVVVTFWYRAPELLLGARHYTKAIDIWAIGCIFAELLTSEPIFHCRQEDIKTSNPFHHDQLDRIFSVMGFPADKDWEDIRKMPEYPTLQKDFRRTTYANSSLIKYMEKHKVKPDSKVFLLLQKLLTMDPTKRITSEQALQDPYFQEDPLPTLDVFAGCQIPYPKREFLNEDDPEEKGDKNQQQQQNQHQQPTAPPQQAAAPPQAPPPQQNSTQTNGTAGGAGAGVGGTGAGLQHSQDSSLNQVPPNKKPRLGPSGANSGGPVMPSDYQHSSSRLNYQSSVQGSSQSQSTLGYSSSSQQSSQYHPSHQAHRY
Sequence of CDK19/CYCLIN C (P24863 whole entry partner): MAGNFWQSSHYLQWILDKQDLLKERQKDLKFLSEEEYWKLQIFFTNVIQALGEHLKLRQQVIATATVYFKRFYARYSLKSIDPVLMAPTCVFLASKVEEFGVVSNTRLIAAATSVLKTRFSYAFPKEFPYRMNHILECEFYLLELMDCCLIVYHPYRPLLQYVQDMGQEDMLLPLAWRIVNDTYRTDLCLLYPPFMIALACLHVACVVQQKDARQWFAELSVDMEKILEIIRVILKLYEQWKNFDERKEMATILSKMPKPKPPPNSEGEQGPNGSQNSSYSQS
Protocol for CHK2: A 4-fold concentration test compound solution was prepared with an assay buffer (20 mM HEPES, 0.01% Triton X-100, 1 mM DTT, pH 7.5). A 4-fold concentration substrate/ATP/metal solution was prepared with a kit buffer (20 mM HEPES, 0.01% Triton X-100, 5 mM DTT, pH 7.5).
Protocol for hERG current: The test compounds were added to cultured hERG (human Ether-a-go-go Related Gene) gene stably expressing CHO cell line cells to achieve 0.27 to 100 μM.

Take `COc1ccnc(OCCCN)c1-c1cc(Nc2cnc(C#N)cn2)n[nH]1` [Example 1, 5-({5-[2-(3-aminopropoxy)-4-methoxypyridin-3-yl]-1H-pyrazol-3-yl}amino)pyrazine-2-carbonitrile]: on CHK1, the “CHK1 inhibitory activity relative to prexasertib” value was not below 5 fold and the IC50 is less than 0.1 nM. The “effect of suppressing CHK1 activity (in words)” value at CHK1 (compared with prexasertib) is reported as “more potent effect of suppressing CHK1 activity than prexasertib; also recorded: especially potently suppressing CHK1 activity”. Besides, the inhibition at 0.0001 µM on CHK1 (read-out: CHK1 inhibition % at 0.1 nM) is 55%. Also, the IC50 at CHK2 amounted to 56.6 nM. This compound had a hERG/CHK1 on hERG current of more than 115000.

For `COc1cccc(OCCCN)c1-c1cc(Nc2cnc(C#N)cn2)n[nH]1` [Prexasertib, reference compound], the remaining activity at 0.1 µM at MARK1 came to 14.1%; at LRRK2, 23.5%; at CDK19/CYCLIN C it was 19.9%; on MEK5, 10.7%; at GLK/MAP4K3, 20.8%; on SIK1, 11.9%.
